Data taken from US20040138301A1, “Chemical uncouplers for the treatment of obesity” (priority 2002, published 2004).
Where two headings read alike, the source gives them in different places.

What was measured:
HEP-G2 cells = experiment: cells; conditions: for EC50 / Emax / EC (Emax): Homo sapiens; for EC50: HepG2, 3 h; for HEP-G2 Tox: human, 3 h
In short: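 HEP-G2 cells were treated with compound for 3 h at 37 °C in MEM/0.5% BSA containing 10 μCi/ml D-(3-^3H(N))-glucose, then lysed with TCA; ^3H-water released via the respiratory chain was recovered by evaporation at 50 °C and counted. Values are corrected for non-specific and basal counts, expressed as % of maximal FCCP or DNP stimulation, and EC50 is from a variable-slope sigmoidal fit.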

FSK-4 cells = experiment: Assay (IV): Glucose utilisation in FSK-4 cells; type: cell-based; conditions: FSK-4 cells; for EC50: glucose utilisation, 24 hours incubation, read-out: FSK4 EC50; for Emax: maximal efficacy relative to FCCP, read-out: FSK4 Emax (% of FCCP)
Description: Assay (IV): Glucose Utilisation in FSK-4 Cells
The assay measures indirectly the activity of the respiratory chain in FSK-4 cells by using D-(6-^3H(N))-glucose. The ^3H-proton will first be released in the TCA cyclus and transported to the respiratory chain where it will be incorporated into water. The water is thereafter separated from the D-(6-^3H(N))-glucose by evaporation. Finally, the radioactivity in the water is determined using a Topcounter.
FSK-4 cells obtained from ATCC (Maryland, USA), are cultured in growth medium (McCoy's medium with the following addition 100 units/ml penicillin and streptomycin and 10% FCS (fetal calf serum)) at 37° C. and 5% CO2. All media are obtained by Gibco (Life Technologies, Maryland, USA) where not otherwise mentioned.
At day zero the cells are harvested using trypsin-EDTA and washed in assay medium (MEM medium with the following addition 1× non-essential amino acids (M7145, 2 mM glutamin, 100 units/ml pencillin and streptomycin, 0.0075% sodium bicarbonate, 1 mM sodium pyrovate and 2% horse serum) using centrifugation. The cells are plated into single StripPlates wells (Corning B.V.Life Sciences, The Netherlands) that are placed into 24-well plates (Corning B.V.Life Sciences, The Netherlands) with a concentration of 1,5×10^4 cells/100 μl assay medium/well. The cells are then incubated at 37° C. and 5% CO2 overnight.
The next day the compounds to be tested are diluted to different concentrations in DMSO (Sigma, Missouri, USA) to 100 times final concentration. They are then diluted to a final concentration in assay medium containing 10 μCi/ml D-(6-^3H(N))-glucose (PerkinElmer Life Sciences Inc., Boston, USA). The medium is removed from the cells and 200 μl of the compound dilutions are added in duplicates. The cells are then incubated for another 24 hours at 37° C. and 5% CO2. Finally the cells are lysed by adding 50 μl 10% TCA (tri-chloroacetatic acid). 300 μl of sterile water is then added to the 24-wells that surrounds the StripPlate wells. The plate is sealed with Top-seal-tape (Packard, PerkinElmer Life Sciences Inc., Boston, USA) and the plate is incubated in a heating cupboard at 50° C. to equilibrium the radioactive water formed in the respiratory chain into the water in the 24-well plate by evaporate. The plates incubate for 8 hours where the heating cupboard is turned off. The top seal is removed when the samples have reached room temperature. One ml scintillation liquid (Packard Microscient, PerkinElmer Life Sciences Inc., Boston, USA) is added to all the samples and the radioactivity is determined using a Topcounter (Packard, PerkinElmer Life Sciences Inc., Boston, USA). Non-specific activity is determined by evaporating 200 μl of the dilution medium containing the D-(6-^3H(N))-glucose into 300 μl sterile water, and total radioactivity is determined by counting 5 μl assay medium with 10 μCi/ml D-(6-^3H(N))-glucose.
All calculations are done using GraphPad Prism 3.0 (GraphPad software, Inc.) From concentration-response curves the half maximal concentration (EC50) and maximal efficacy (Emax) are calculated using equation 1.
Y=Bottom+(Top−Bottom)/(1+10^((LogEc50-X)*slope))
X is the logarithm of the molar concentration of the test compound.
Y is the degree of stimulation caused by the compound measured as percentage of the basal stimulation.
The calculated EC50 value is then used to determine the concentrations used in a study where the Hill slope is calculated.
From the double logarithmic plot of the increase in glucose utilisation and the compound concentration the Hill slope is calculated accordingly to equation 2.
It is presumed, that the maximal increase in the glucose utilisation (as measured in the FSK-4 glucose utilisation assay) is limited by the capacity of the metabolism.

[1] = read-out: HEP-G2 EC50, HEP-G2 cells, glucose utilisation, 3 hours incubation
[2] = HepG2, read-out: HEP-G2 Emax (% of FCCP), HEP-G2 cells, maximal stimulation relative to FCCP
[3] = HepG2, read-out: HEP-G2 Emax (μM), HEP-G2 cells, concentration at which Emax is achieved (CEmax)
[4] = HepG2, read-out: HEP-G2 Emax (% of FCCP)
[5] = HepG2, read-out: HEP-G2 Emax (μM)

EC50 (HEP-G2 cells; [1]) [nM] | EC50 (FSK-4 cells) [nM] | SMILES | Emax (HEP-G2 cells; [2]) [%] | EC (Emax) (HEP-G2 cells; [3]) [µM] | HEP-G2 Tox (HEP-G2 cells) | Emax (FSK-4 cells) [%] | EC50 (HEP-G2 cells; read-out: HEP-G2 EC50) [nM] | Emax (HEP-G2 cells; [4]) [%] | EC (Emax) (HEP-G2 cells; [5]) [µM]
100000 | 9000 | CCOC(=O)/C(=C/c1cc(C(C)(C)C)c(O)c(C(C)(C)C)c1)C(C)=O [Example 69, 2-Acetyl-3-(3,5-Di-Tert-Butyl-4-Hydroxy-Phenyl)-Acrylic Acid Ethyl Ester] | 58 | 300 | Tox 1 mM | 40 |  |  | 
14000 | 19000 | Cc1c(Br)cc(C(C)(C)C)c(O)c1C(=O)Nc1ccc(C(C)C)cc1C(F)(F)F [Example 63, 3-Bromo-5-Tert-Butyl-6-Hydroxy-N-(4-Isopropyl-2-Trifluoromethyl-Phenyl)-2-Methyl-Benzamide] | 90 | 100 |  | 55 |  |  | 
400 | 300 | Cc1c(Br)cc(C(C)(C)C)c(O)c1C(=O)Nc1ccc(C#N)cc1Cl [Example 51, 3-Bromo-5-Tert-Butyl-N-(2-Chloro-4-Cyano-Phenyl)-6-Hydroxy-2-Methyl-Benzamide] | 100 | 3 |  | 105 |  |  | 
1100 | 200 | CCCCCCCC[P+](CCCCCCCC)(CCCCCCCC)Cc1cc(C(C)(C)C)c(O)c(C(C)(C)C)c1.[Br-] [Example 14, (3,5-Di-Tert-Butyl-4-Hydroxybenzyl)Trioctylphosphonium Bromide] | 100 | 10 | Tox 0.01 mM | 100 |  |  | 
4150 | 15000 | Cc1c(Br)cc(C(C)(C)C)c(O)c1C(=O)Nc1ccc(Cl)cc1Cl [Example 53, 3-Bromo-5-Tert-Butyl-N-(2,4-Dichloro-Phenyl)-6-Hydroxy-2-Methyl-Benzamide] | 90 | 10 |  | 95 |  |  | 
60 | 100 | Cc1c(Cl)cc(C(C)(C)C)c(O)c1C(=O)Nc1ccc([N+](=O)[O-])cc1Cl [Example 5, 3-Tert-Butyl-5-Chloro-N-(2-Chloro-4-Nitrophenyl)-2-Hydroxy-6-Methyl-Benzamide] | 95 | 0.3 |  | 100 |  |  | 
2400 | 2500 | Cc1c(Br)cc(C(C)(C)C)c(O)c1C(=O)Nc1cc(C(F)(F)F)ccc1Cl [Example 52, 3-Bromo-5-Tert-Butyl-N-(2-Chloro-5-Trifluoromethyl-Phenyl)-6-Hydroxy-2-Methyl-Benzamide] | 95 | 10 |  | 75 |  |  | 
370 | 300 | Cc1ccc(C(C)(C)C)c(O)c1C(=O)Nc1ccc([N+](=O)[O-])cc1Cl [Example 10] | 100 | 3 |  | 80 |  |  | 
2300 | 1200 | Cc1c(Br)cc(C(C)(C)C)c(O)c1C(=O)Nc1c(Cl)cc(Cl)cc1C(F)(F)F [Example 62, 3-Bromo-5-Tert-Butyl-N-(2,4-Dichloro-6-Trifluoromethyl-Phenyl)-6-Hydroxy-2-Methylbenzamide] | 115 | 30 |  | 85 |  |  | 
110 | 30 | Cc1ccc(C(C)(C)C)c(O)c1C(=O)Nc1ccc([N+](=O)[O-])cc1C(F)(F)F [Example 59, 3-Tert-Butyl-2-Hydroxy-6-Methyl-N-(4-Nitro-2-Trifluoromethyl-Phenyl)-Benzamide] | 110 | 10 |  | 100 |  |  | 
600 | 6000 | CC(C)(C)c1cc(C=C2C(=O)c3ccccc3C2=O)cc(C(C)(C)C)c1O [Example 18, 2-(3,5-Di-Tert-Butyl-4-Hydroxy-Benzylidene)-Indan-1,3-Dione] | 80 | 3 |  | 100 |  |  | 
8000 | 18000 | CC(C)(C)c1cc(/C=C(\C#N)c2ccc(OC(F)(F)F)cc2)cc(C(C)(C)C)c1O [Example 80, 3-(3,5-Di-Tert-Butyl-4-Hydroxy-Phenyl)-2-(4-Trifluoromethoxy-Phenyl)-Acrylonitrile] | 80 | 100 | Tox 0.3 mM | 100 |  |  | 
11000 | 30000 | CCOC(=O)C(=Cc1cc(C(C)(C)C)c(O)c(C(C)(C)C)c1)C(=O)OCC [Example 16, 2-(3,5-Di-Tert-Butyl-4-Hydroxy-Benzylidene)-Malonic Acid Diethyl Ester] | 100 | 100 |  | 45 |  |  | 
700 | 2000 | CCOC(=O)/C(C#N)=C/c1cc(C(C)(C)C)c(O)c(C(C)(C)C)c1 [Example 15, 2-Cyano-3-(3,5-Di-Tert-Butyl-4-Hydroxyphenyl)-Acrylic Acid Ethyl Ester] | 100 | 3 |  | 65 |  |  | 
10000 | 11000 | CCOC(=O)/C(C#N)=C(/C)c1cc(C(C)(C)C)c(O)c(C(C)(C)C)c1 [Example 82, 2-Cyano-3-(3,5-Di-Tert-Butyl-4-Hydroxy-Phenyl)-But-2-Enoic Acid Ethyl Ester] | 100 | 30 |  | 90 |  |  | 

SMILES | EC50 (HEP-G2 cells; [1]) [nM] | EC50 (FSK-4 cells) [nM] | Emax (HEP-G2 cells; [2]) [%] | EC (Emax) (HEP-G2 cells; [3]) [µM] | HEP-G2 Tox (HEP-G2 cells) | Emax (FSK-4 cells) [%] | EC50 (HEP-G2 cells; read-out: HEP-G2 EC50) [nM] | Emax (HEP-G2 cells; [4]) [%] | EC (Emax) (HEP-G2 cells; [5]) [µM]
Cc1c(Cl)cc(C(C)(C)C)c(O)c1C(=O)Nc1ccc(C#N)c(C(F)(F)F)c1 [Example 43, 3-Tert-Butyl-5-Chloro-N-(4-Cyano-3-Trifluoromethyl-Phenyl)-2-Hydroxy-6-Methyl-Benzamide] |  | 300 |  |  |  | 80 | 850 | 95 | 3
Cc1c(Br)cc(C(C)(C)C)c(O)c1C(=O)Nc1cc(C(F)(F)F)cc(C(F)(F)F)c1Br [Example 60, 3-Bromo-N-(2-Bromo-3,5-Bis-Trifluoromethyl-Phenyl)-5-Tert-Butyl-6-Hydroxy-2-Methylbenzamide] | 70 | 300 | 90 | 0.3 |  | 105 |  |  | 
CC(C)(C)c1cc(/C=C(\C#N)c2ccc(C(F)(F)F)cc2)cc(C(C)(C)C)c1O [Example 81, 3-(3,5-Di-Tert-Butyl-4-Hydroxy-Phenyl)-2-(4-Trifluoromethyl-Phenyl)-Acrylonitrile] |  | 7000 |  |  |  | 140 | 7000 | 130 | 100
Cc1c(Cl)cc(C(C)(C)C)c(O)c1C(=O)Nc1ccc([N+](=O)[O-])c(C(F)(F)F)c1 [Example 49, 3-Tert-Butyl-5-Chloro-2-Hydroxy-6-Methyl-N-(4-Nitro-3-Trifluoromethyl-Phenyl)-Benzamide] | 950 | 300 | 105 | 3 |  | 95 |  |  | 
